Here are results for 9 compounds from patent US20210024498A1, “TETRAHYDROPYRROLE COMPOUND, PREPARATION METHOD THEREFOR, PHARMACEUTICAL COMPOSITION CONTAINING SAME, AND USE THEREOF” (MEDICONNS (SHANGHAI) BIOPHARMACEUTICAL CO., LTD, priority 2017, published 2021).

The target in assay [1] is T1, D2 receptor (Homo sapiens, UniProt P14416).
T1 construct: expressed in transfected cells; host or cells: HEK293
The assay is described as follows: D2 receptor affinity assay (radioligand competition, 3H-7-OH-DPAT). It counts as binding. As to conditions: cloned D2 receptor expressed in HEK293 cell line; 3H-7-OH-DPAT 1 nM. As for the experimental part: (§1) Bioactivity Test • I. D2 receptor affinity assay: The affinity of the compound to D2 receptor was determined by radioligand competition assay, and the cloned D2 receptor was expressed in HEK293 cell line. • II. D2 receptor function assay: The ability of the compound to antagonize the D2 receptor was determined using a calcium mobilization assay (FLIPR). • III. DAT receptor function assay: The ability of the compound to inhibit DAT was determined by neurotransmitter transporter absorption assay.
• Experimental buffer: 50 mM Tris-HCl, pH 7.4, 5 mM MgCl2 • Washing buffer: 50 mM Tris-HCl pH 7.4, stored at 4° C. ready for use.
• The compound and positive control 7-OH-DPAT were serially diluted with DMSO, with the initial concentration of 2 mM and 4 times serial dilution, a total of 10 concentrations. 1 μL was transferred to the designated position of the 96-well plate. • 1 μL droperidol (final concentration 10 μM) was added to the positive control well. 1 μL DMSO was added to the negative control well.
• Receptor cell membrane was diluted to 10 μg/well with corresponding experimental buffer, with 100 μL cell membrane/well.
• 3H-7-OH-DPAT was diluted to 2 nM with corresponding experimental buffer, and the final concentration was 1 nM.
• After 100 μL of cell membrane and isotope were added, respectively, the reaction plate of the D2 receptor was incubated at room temperature for 1 hour. The GF/C filter plate was soaked in 0.3% PEI solution for more than half an hour. After the reaction was completed, the cell membrane was collected on the GF/C filter plate using the […], washed 4 times with cold washing buffer, and then dried in an oven at 50° C. for 1 hour. The dried GF/C filter plate was sealed at the bottom, 50 μL of scintillation fluid was added to each well and the well was sealed. Reads were obtained by MicroBeta and the data was analyzed using GraphPad Prism 5.0.
Ki=IC50/(1+isotope concentration/Kd)
(Loss of bound radioactivity is the signal in a displacement assay; it reports binding, not function.)

In a further assay the target is DAT (Homo sapiens, UniProt Q01959). The assay is described as follows: DAT transporter assay (neurotransmitter transporter absorption assay). It counts as cell-based. On the procedure: as §1
Sequence of DAT (Q01959 whole entry, species assumed): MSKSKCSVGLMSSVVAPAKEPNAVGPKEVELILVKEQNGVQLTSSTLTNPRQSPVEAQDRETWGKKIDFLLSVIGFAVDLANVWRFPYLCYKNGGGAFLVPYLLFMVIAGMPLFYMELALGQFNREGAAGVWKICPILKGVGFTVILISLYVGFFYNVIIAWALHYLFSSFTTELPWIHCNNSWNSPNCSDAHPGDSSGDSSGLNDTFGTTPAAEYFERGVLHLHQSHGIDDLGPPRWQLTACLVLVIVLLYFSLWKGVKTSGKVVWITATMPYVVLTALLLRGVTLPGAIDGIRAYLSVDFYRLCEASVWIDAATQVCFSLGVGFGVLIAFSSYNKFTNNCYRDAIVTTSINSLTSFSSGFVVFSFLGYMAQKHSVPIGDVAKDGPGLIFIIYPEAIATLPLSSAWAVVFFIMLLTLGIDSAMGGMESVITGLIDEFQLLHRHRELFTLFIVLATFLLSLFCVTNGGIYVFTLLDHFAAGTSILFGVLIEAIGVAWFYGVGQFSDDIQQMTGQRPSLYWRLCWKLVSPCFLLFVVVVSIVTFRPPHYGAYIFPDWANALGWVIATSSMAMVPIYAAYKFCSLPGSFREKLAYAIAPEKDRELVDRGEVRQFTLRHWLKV
• HBSS1×, REPES 20 mM, BSA 0.1%.
• Lyophilized fluorescent dye 1 vial, Assay buffer 10 mL.
• BTCP—hydrochloride (Sigma)
• i) The medium was preheated in 37° C. water bath in advance for more than 30 minutes for later use. • j) The preheated medium was taken out, disinfected with 75% alcohol, and put into a biosafety cabinet. • k) The cultured cells were taken out from the […], and the medium was removed by a vacuum pump. 1× DPBS was added, incubated for a moment, and then removed by a vacuum pump. Appropriate amount of 0.05% trypsin-EDTA was added for cell digestion. The digestion was terminated by 10% FBS medium, and the cells were pipetted and dispersed. • l) The dispersed cells were transferred into a 50 mL centrifuge tube with a pipette.
• a) The reference compound was diluted in a ratio of 1:3 to 10 concentration gradients with the detection buffer containing 0.1% BSA, with the highest concentration being 2 μM. The compound to be tested was diluted to 20 uM with the detection buffer containing 0.1% BSA. • b) A centrifuge (750 rpm, 15 s) was used to spin off the culture solution in the cell culture plate, and the compound solution in step 1 was transferred to the cell culture plate (25 uL/well). • HC (High control): 25 μL of 0.1% BSA detection buffer containing 0.2% DMSO. • LC (Low control): 25 μL of solution containing 2 μM positive antagonist. • c) After centrifugation at 300 rpm for 15 seconds, the plate was incubated at 37° C. for 30 minutes. After the incubation with the compound was completed, a dye solution (25 μL/well) was added and incubated at 37° C. for 30 minutes.
Inhibitor % activity=100−(signal value per well−average value for LC well)/(average value for H well−average value for LC well)*100%.

Assay [2] has as its target T1, D2 receptor. Put plainly: D2 receptor function assay, calcium mobilization (FLIPR). It counts as cell-based. To be noted: HEK293, antagonism of D2 receptor. On the procedure: as §1
• Cell line: HEK293 • DMEM medium (Invitrogen) • Fetal bovine serum (FBS, Invitrogen) • L-Glutamine (Invitrogen) G418 (Invitrogen) • Blasticidin (Invitrogen)
• Fluo-4 Direct Kit (Invitrogen)
• 250 mM Probenecid solution was formulated: according to the kit instructions, 1 mL of FLIPR buffer salt solution was added to 77 mg probenecid just before needed. • 2× (8 μM) Fluo-4 Direct™ loading buffer was formulated: the number of tubes in Fluo-4 Direct™ needed for the experiment was melted in advance. Just before needed, 10 ml of FLIPR buffer salt solution and 0.2 mL of 250 mM Probenecid solution were added to each tube and vortexed in dark for more than 5 minutes.
• a) One tube of cells was taken from the liquid nitrogen tank and quickly thawed in 37° C. water bath. • b) The cell suspension was added to a centrifuge tube to which the preheated 20 ml medium was added in advance. • c) The centrifuge tube was centrifuged at 1000 rpm for 5 minutes at room temperature. • d) The supernatant was slowly decanted to avoid affecting the precipitated cells. • e) The cells were resuspended with 10-30 ml medium by pipetting the cells gently with a pipette. • f) The viability and number of cells were calculated with the cell counter. • g) The cells were diluted to 1×10^5 cells/ml with medium, and inoculated in the 384-well polylysine coated cell plate at 20 μL/well. • h) The plate was incubated in an incubator at 5% CO2, 37° C. for 16 to 20 hours.
10 μL of experimental buffer salt solution was added into the cell plate according to the set program, and the fluorescence signal was read. 10 μL of agonist reference compound was further added at a given concentration to the cell plate and the fluorescence signal was read. After reading, the data was derived by “Max-Min” and “Read 90 to Maximum Allowed” methods in the software and EC80 of the corresponding cell line was calculated, and the reference compound with a concentration of 6× EC80 was prepared. • f) The FLIPR instrument software was run. 10 μL of the compound to be tested and the reference compound at a given concentration were added into the cell plate according to the set program, and the fluorescence signal was read. 10 μL of reference compound agonist was further added at a concentration of 6× EC80 to the cell plate and the fluorescence signal was read. • g) Data Analysis • Calculation formula for data in the project:
Inhibitor % activity=100−(signal value per well−average value for high dose control group of inhibitor)/(average value for DMSO control group−average value for high dose control group of inhibitor)*100%.
In general terms: Calcium assays in cells follow changes in intracellular calcium, usually with a dye or a luminescent sensor.

In assay [3] the test system is PCP-induced high locomotor activity in mice. The assay is described as follows: Phencyclidine (PCP) induced high locomotor activity (LMA) in mice. It counts as in vivo. More on the design: Distance resulting from the activity, First 30 min / Distance resulting from the activity, Last 30 min: unit not given here. As to conditions: PCP 5.0 mg/kg s.c.; 5 mg/kg p.o. (low dose group; olanzapine positive control); male ICR mice. From the text: • 1. The effect of the compound on phencyclidine (PCP) induced high locomotor activity (LMA) in mice was detected.
The test compound MDC was milky white powder and stored in a shade and cool place (freshly formulated with 1% DMSO before use). […] Phencyclidine (PCP), purchased from Sigma Aldrich, was a grayish white powder (freshly formulated with normal saline before use). 1% DMSO was formulated by diluting pure DMSO (purity>99.5, purchased from Sigma-Aldrich) with normal saline.
(§2) Male ICR mice having weight 22±2 g were kept at 8 mice/cage with 12/12 hours light/dark cycle, temperature 23° C.±1° C., humidity 50% to 60%, free to eat and drink water.
The administration volume was 0.1 ml/10 g body weight; PCP was formulated with normal saline at a dose of 5 mg/kg.
The test compound MDC and olanzapine were administered by gavage and PCP was administered by subcutaneous injection.
(§3) After one week of acclimation, mice were randomly divided into 6 groups according to their body weight: negative control group, model group, positive control group, and low dose group, medium dose group and high dose group for the test compound. 8-10 animals/group.
(§4) Group 1: Negative control group: Normal saline (s.c.)+1% DMSO (10.0 ml/kg, p.o.);
Group 2: Model group: PCP (5.0 mg/kg, s.c.)+1% DMSO (10.0 ml/kg, p.o.);
Group 4: MDC low dose group: PCP (5.0 mg/kg, s.c.)+MDC (5 mg/kg, p.o.);
Group 5: MDC medium dose group: PCP (5.0 mg/kg, s.c.)+MDC (10 mg/kg, p.o.);
Group 6: MDC high dose group: PCP (5.0 mg/kg, s.c.)+MDC (20 mg/kg, p.o.).
After oral administration, the animals were immediately placed in a locomotor activity box and recorded by Shanghai Jiliang ( ? ) animal video analysis system for 1 hour.
(§5) After the experiment, the activity of the animals within 1 hour was analyzed using the trajectory analysis software of Shanghai Jiliang animal video analysis system to obtain the total distance resulting from the activity.

In assay [4] the test system is Amphetamine-induced high locomotor activity in mice. The assay is described as follows: Amphetamine-induced high locomotor activity (LMA) in mice. It counts as in vivo. More on the design: Distance resulting from the activity, First 30 min / Distance resulting from the activity, Last 30 min: unit not given here. To be noted: Amphetamine 1.0 mg/kg s.c.; 5 mg/kg p.o. (low dose group; olanzapine positive control); male ICR mice. On the procedure:
The test compound MDC was a milky white powder and stored in a shade and cool place (formulated with 1% DMSO before use). […] Amphetamine, purchased from Sigma-Aldrich, was a white powder (formulated with normal saline before use). 1% DMSO was formulated by diluting pure DMSO (purity>99.5, purchased from Sigma) with normal saline.
as §2
The administration volume was 0.1 ml/10 g body weight; Amphetamine was freshly formulated with normal saline at a dose of 1.0 mg/kg and administered subcutaneously.
as §3, §4
Group 2: Model group: Amphetamine (1.0 mg/kg, s.c.)+1% DMSO (10.0 ml/kg, p.o.);
Group 4: MDC low dose group: Amphetamine (1.0 mg/kg, s.c.)+MDC (5 mg/kg, p.o.);
Group 5: MDC medium dose group: Amphetamine (1.0 mg/kg, s.c.)+MDC (10 mg/kg, p.o.);
Group 6: MDC high dose group: Amphetamine (1.0 mg/kg, s.c.)+MDC (20 mg/kg, p.o.).
After administration, the animals were immediately placed in a locomotor activity box and recorded by Shanghai Jiliang animal video analysis system for 1 hour.
as §5

Another assay deals with T2, D4 receptor (Homo sapiens, UniProt P21917).
T2 sequence (P21917 1-419): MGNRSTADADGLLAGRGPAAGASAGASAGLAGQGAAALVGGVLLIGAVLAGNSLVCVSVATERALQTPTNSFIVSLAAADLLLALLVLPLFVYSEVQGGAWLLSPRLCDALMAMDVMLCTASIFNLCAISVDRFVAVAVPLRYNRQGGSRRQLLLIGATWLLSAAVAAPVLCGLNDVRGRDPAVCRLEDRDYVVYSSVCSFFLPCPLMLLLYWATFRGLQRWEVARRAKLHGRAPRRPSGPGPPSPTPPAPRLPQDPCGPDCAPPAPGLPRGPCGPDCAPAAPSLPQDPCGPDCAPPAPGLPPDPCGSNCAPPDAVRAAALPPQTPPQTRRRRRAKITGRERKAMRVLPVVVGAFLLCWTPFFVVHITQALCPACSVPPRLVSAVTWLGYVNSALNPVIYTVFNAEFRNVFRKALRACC
As to conditions: Bioorg. Med. Chem. 17 (2009) 1716-1723; cited from earlier work.

The target of assay [5] is T1, D2 receptor. To be noted: Bioorg. Med. Chem. 17 (2009) 1716-1723; cited from earlier work.

T1 sequence (P14416 whole entry): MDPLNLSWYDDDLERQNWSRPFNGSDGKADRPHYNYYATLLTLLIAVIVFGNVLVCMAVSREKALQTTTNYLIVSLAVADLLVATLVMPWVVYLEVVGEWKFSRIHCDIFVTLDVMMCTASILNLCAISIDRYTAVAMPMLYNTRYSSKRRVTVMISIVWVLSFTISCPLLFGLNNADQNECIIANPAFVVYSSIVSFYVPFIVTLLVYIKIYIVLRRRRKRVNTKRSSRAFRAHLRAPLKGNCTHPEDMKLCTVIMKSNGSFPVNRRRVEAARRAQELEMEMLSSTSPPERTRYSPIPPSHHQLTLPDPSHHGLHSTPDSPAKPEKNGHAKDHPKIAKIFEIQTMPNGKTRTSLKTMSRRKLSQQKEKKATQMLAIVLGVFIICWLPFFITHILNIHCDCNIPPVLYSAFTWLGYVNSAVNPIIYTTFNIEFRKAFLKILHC

Usually IC50 stands for the concentration at which inhibition is half-maximal. As to `Oc1cc(C2CCN(Cc3c[nH]c4ccccc34)C2)ccc1F` (stereo not shown) [MDC-161502-031], the IC50 on D2 receptor [1] was 22.4 nM; at DAT it was 28.3 nM; at D2 receptor [2], 14.5 nM.
In the case of `Oc1cccc(C2CCN(Cc3n[nH]c4ccccc34)C2)c1` (stereo not shown) [MDC-161502-033], the IC50 on D2 receptor [1] stood at 6.83 nM; against DAT, 111 nM; at D2 receptor [2], 2.28 nM.
In the case of `Oc1cccc(C2CCN(Cc3c[nH]c4ncccc34)C2)c1` (stereo not shown) [MDC-161502-034], the results for the concentration for half-maximal inhibition (IC50) on D2 receptor [1], against DAT and at D2 receptor [2] were 2.02 nM, 685 nM and 1.99 nM, respectively.
In the case of `c1ccc2c(CN3CCC(c4ccc5cn[nH]c5c4)C3)c[nH]c2c1` (stereo not shown) [MDC-161502-036], the half-maximal inhibitory concentration (IC50) is 298 nM at D2 receptor [1], 841 nM against DAT and 471 nM on D2 receptor [2].
The corresponding values for `c1ccc2c(CN3CCC(c4ccc5nc[nH]c5c4)C3)c[nH]c2c1` (stereo not shown) [MDC-161502-037] are 461 nM, 191 nM and 269 nM.
The corresponding values for `c1ccc2c(CN3CCC(c4cccc5[nH]ncc45)C3)c[nH]c2c1` (stereo not shown) [MDC-161502-038] are 10.2 nM, 87.5 nM and 6.22 nM.
The compound `c1ccc2c(CN3CCC(c4ccc5[nH]nnc5c4)C3)c[nH]c2c1` (stereo not shown) [MDC-161502-040] gave an IC50 against DAT of 52.8 nM.
For the compound `Cc1cc2c(s1)Nc1ccccc1N=C2N1CCN(C)CC1` [Olanzapine, olanzapine, reference compound], in assay [3], the “Distance resulting from the activity, First 30 min” value came to 208491 and the “Distance resulting from the activity, Last 30 min” value stood at 80518. Besides, in assay [4], the “Distance resulting from the activity, First 30 min” value is given as 227653 and the “Distance resulting from the activity, Last 30 min” value is reported as 158673.
As to `OC1(c2ccc(Cl)cc2)CCN(Cc2c[nH]c3ccccc23)C1` (stereo not shown) [compound 4], the “D4 receptor antagonism (in words)” value at D4 receptor was “moderate intensity of D4 receptor antagonism”. The “Antagonism to D2 receptor (in words)” value on D2 receptor [5] is given as “substantially no antagonism to D2 receptor”.
